According to patent US6495118B1, “Lipophilic metal complexes for necrosis and infarction imaging” (Schering Aktiengesellschaft, priority 1997, dated 2002):

Legend:
[1] = system: rats with induced renal infarctions (necrotic area of the kidney); assay: MRI experiments on animals with induced renal infarctions; format: in vivo; details: rat
Protocol: Plasma protein bond: 10% (Europ. Workshop on Magn. Reson. in Medicine, Santiago de Compostela, Spain, Sep. 28-30, 1994).
The induction of the renal infarctions was carried out on anesthetized (Rompun®/Ketavet®, i.p.) rats (Han. Wistar, Schering SPF, about 200 g of body weight) by occlusion of a (caudal) branch of the left renal artery. The contrast medium was administered (dose: 300 or 500 μmol of Gd/kg of body weight) about 24 hours after the induction of infarction. The animals were studied before and up to 24 hours after contrast medium administration by MR-tomography (SISCO SIS 85, 2 tesla; SE sequence, TR: 400 ms, TE: 15 ms, nt=4, ni=128, FOV: 12-7 cm, SD≈3 mm, 1 layer each axial or coronary).
After the MRI experiments were completed, the anesthetized animals were sacrificed by exsanguination (via the V. cava), and both kidneys were prepared. To verify the infarction (size and position), the left (infarcted) kidney was removed and sliced into disks, and then NBT (“vital”) coloring was carried out.

plasma protein = details: cited from earlier work

## CCOc1ccc(CC(CN(CCN(CC(=O)[O-])CC(=O)[O-])CC(=O)[O-])N(CC(=O)[O-])CC(=O)[O-])cc1.[Gd+3].[Na+].[Na+] (centres unmarked) [Eovist]
[1]; 300 or 500 μmol of Gd/kg i.v., immediately after substance administration
  MRI appearance of nonperfused portion of the kidneys: hypointense area
[1]; 300 or 500 μmol of Gd/kg i.v., late phase (about 4-6 hours p.i.), all animals studied
  MRI signal (enhancement) in the necrotic area of the kidneys: considerable signal increase (enhancement)
[1]; 300 or 500 μmol of Gd/kg i.v., starting at about 15-30 minutes p.i.
  MRI signal intensity in the non-perfused area: increased somewhat
[1]; infarcted left kidney
  Correlation of MRI delineation of the necrotic area with histological vital (NBT) coloring: correlated very well
Plasma protein
  Plasma protein bond: 10%
